The subject of experiment [1] is S. aureus ATCC 29213 and 31-1334. Description: Selection of spontaneous resistant mutants (mutation frequency). Type of experiment: cell-based, Staphylococcus aureus. On the procedure:
Approximately, 10^9 bacteria were plated onto Mueller-Hinton agar supplemented with 10% horse blood and containing various concentrations of the test compounds alone and in combination. After 24 and 48 hours of incubation at 35° C., the bacterial colonies were counted and the frequencies of mutation were determined relative to the total viable count of organisms that were plated. Resistant clones were re-plated once on plates containing the same concentration of agent that was used for the selection.

Experiment [2] deals with mupirocin-resistant S. aureus. The conditions noted are these: cited from earlier work.
Experiment [3] relates to S. epidermidis. Nature of the experiment: MIC against S. epidermidis. It is filed as cell-based. As to the method: The MRS inhibitor 4 alone and in combination with mupirocin (mupirocin salt and 1:1 combination) were tested against a collection of Gram-positive pathogens.
The MRS inhibitor 8 was also prepared as a fusidate and mupirocinate salt and tested for antibacterial activity against Gram-positive bacteria (Table 3). […] MRSi compound 8 alone and the fusidate and mupirocin salts were active against mupirocin-resistant S. aureus and S. epidermidis and organisms such as E. faecalis that are not susceptible to mupirocin.
The MRS inhibitor 5 acetate and mupirocin salts were tested against a collection of Gram-positive bacteria.

The test system of experiment [4] is S. aureus RN4220 (pYH4-MRS). Nature of the experiment: Mode of action: MIC with MRS over-production. The conditions noted are these: S. aureus RN4220 (pYH4-MRS), +aTC (MRS over-expression). It is filed as cell-based.
Protocol: The strain expresses high levels of MRS upon the addition of 0.01 μg/mL of anyhdrotetracycline.
Experiment [5] deals with S. epidermidis. Description: Development of resistance following serial passage, S. epidermidis. It is filed as cell-based. The conditions noted are these: Staphylococcus epidermidis. As to the method: (§1) MRSi compound 5 (acetate salt), mupirocin and MRSi compound 5/mupirocin 1:1 combination were tested for development of resistance following serial passage using 19 isolates, including S. aureus, coagulase-negative staphylococci and S. pyogenes strains.

In experiment [6] the test system is S. pyogenes. Description: Development of resistance following serial passage, S. pyogenes. Type of experiment: cell-based. The conditions noted are these: Streptococcus pyogenes. As to the method:
as §1

For experiment [7], the system named is S. aureus. Nature of the experiment: Development of resistance following serial passage, S. aureus. It is filed as cell-based. The conditions noted are these: Staphylococcus aureus. On the procedure:
as §1

The subject of experiment [8] is S. hemolyticus. Description: Development of resistance following serial passage, S. hemolyticus. It is filed as cell-based. As to the method:
as §1

By MIC is commonly meant the smallest concentration in the dilution series that meets the test's criterion for growth inhibition.

≈ marks a conversion by molar mass, not a printed value. Read-outs that look alike come from different tables or passages of the source. Bounds are passed on as bounds.

For `C/C(=C\C(=O)OCCCCCCCCC(=O)O)C[C@@H]1OC[C@H](C[C@@H]2O[C@H]2[C@@H](C)[C@H](C)O)[C@@H](O)[C@H]1O` [Mupirocin, Pseudomonic acid A], the “Mutation Frequency (48 hours)” value is listed as 1.8 × 10^−8 in experiment [1] (S. aureus 31-1334 (low level mupirocin-resistant), selecting concentration 2 x MIC); 2 × 10^−9 in experiment [1] (S. aureus 31-1334 (low level mupirocin-resistant), selecting concentration 4 x MIC); <1 × 10^−9 in experiment [1] (S. aureus 31-1334 (low level mupirocin-resistant), selecting concentration 8 x MIC); 1.25 × 10^−7 in experiment [1] (S. aureus ATCC 29213 (mupirocin susceptible), selecting concentration 2 x MIC); 1.01 × 10^−7 in experiment [1] (S. aureus ATCC 29213 (mupirocin susceptible), selecting concentration 4 x MIC); 2.57 × 10^−8 in experiment [1] (S. aureus ATCC 29213 (mupirocin susceptible), selecting concentration 8 x MIC). Moreover, the “MICs, high level resistance (mupA)” value in experiment [2] (high level mupirocin resistance, plasmid-encoded IRS enzyme) was > 512 µg/mL. Further, the “MIC's, low level resistance” value in experiment [2] (low level mupirocin resistance (mutations in chromosomal isoleucyl tRNA synthetase)) was 8 to 256 µg/mL. In addition, the MIC in experiment [3] (Staphylococcus epidermidis, Table 2, S. epidermidis NRS6, read-out: MIC) is > 8 µg/mL; in experiment [3] (Staphylococcus epidermidis, Table 2, S. epidermidis NRS7, read-out: MIC), 8 µg/mL; in experiment [3] (Staphylococcus epidermidis, Table 2, S. epidermidis NRS8, read-out: MIC), > 8 µg/mL; in experiment [3] (Table 3, S. epidermidis NRS6), >8 µg/mL; in experiment [3] (Table 3, S. epidermidis NRS7), 8 µg/mL; in experiment [3] (Table 3, S. epidermidis NRS8) it was >8 µg/mL. Also, the MIC in experiment [3] (Table 4, S. epidermidis NRS6) is >8 µg/mL; in experiment [3] (Table 4, S. epidermidis NRS7), 8 µg/mL; in experiment [3] (Table 4, S. epidermidis NRS8) it was >8 µg/mL; in experiment [4], 0.06 µg/mL (≈ 0.12 µM).
Turning to `C=C(F)c1sc(CNCCCNc2cc(=O)c3ccccc3[nH]2)c(C)c1Br` [MRSi Cmpd 5 acetate, N-(4-bromo-5-(1-fluorovinyl)-3-methylthiophen-2-ylmethyl)-N′-(1H-quinolin-4-one)propane-1,3-diamine], the MIC is 0.06 µg/mL in experiment [5] (NRS8, read-out: Initial MIC, S. epidermidis NRS8 (LL-MupR)); 0.5 µg/mL in experiment [5] (read-out: Final MIC after 20 passages, S. epidermidis 936528 (HL-MupR)); 16 µg/mL in experiment [5] (read-out: Final MIC after 20 passages, S. epidermidis 936606 (Oxa-R)); 0.03 µg/mL in experiment [5] (read-out: Initial MIC, S. epidermidis 936528 (HL-MupR)); 0.06 µg/mL in experiment [5] (read-out: Initial MIC, S. epidermidis 936606 (Oxa-R)); 1 µg/mL in experiment [6] (ATCC19615, read-out: Final MIC after 20 passages). For the same molecule, the MIC in experiment [6] (read-out: Final MIC after 20 passages) came out at 1 µg/mL; in experiment [7] (ATCC29213, read-out: Final MIC after 20 passages, S. aureus ATCC 29213), 4 µg/mL; in experiment [7] (ATCC29213, read-out: Initial MIC, S. aureus ATCC 29213) it was 0.06 µg/mL; in experiment [7] (ATCC43300, read-out: Final MIC after 20 passages, S. aureus ATCC 43300 (ORSA)) it was 1 µg/mL; in experiment [7] (ATCC43300, read-out: Initial MIC, S. aureus ATCC 43300 (ORSA)), 0.06 µg/mL; in experiment [7] (NRS103, read-out: Final MIC after 20 passages, S. aureus NRS103 (ORSA)) it was 1 µg/mL. Besides, the MIC in experiment [7] (NRS103, read-out: Initial MIC, S. aureus NRS103 (ORSA)) turned out to be 0.12 µg/mL; in experiment [7] (NRS107, read-out: Final MIC after 20 passages, S. aureus NRS107 (HL-MupR)) it was 0.5 µg/mL; in experiment [7] (NRS107, read-out: Initial MIC, S. aureus NRS107 (HL-MupR)) it was 0.015 µg/mL; in experiment [7] (read-out: Final MIC after 20 passages, S. aureus 10-420 (HL-MupR)), 8 µg/mL; in experiment [7] (read-out: Final MIC after 20 passages, S. aureus 25-670 (HL-MupR)), 8 µg/mL; in experiment [7] (read-out: Final MIC after 20 passages, S. aureus 31-1334 (LL-MupR)), 8 µg/mL. In addition, the MIC in experiment [7] (read-out: Final MIC after 20 passages, S. aureus 87-2797 (HL-MupR)) amounted to 16 µg/mL; in experiment [7] (read-out: Final MIC after 20 passages, S. aureus 1079077 (ORSA)), 16 µg/mL; in experiment [7] (read-out: Final MIC after 20 passages, S. aureus 1079101 (HL-MupR)) it was 16 µg/mL; in experiment [7] (read-out: Final MIC after 20 passages, S. aureus LZ6 (HL-MupR)), 2 µg/mL; in experiment [7] (read-out: Initial MIC, S. aureus 1079077 (ORSA)) it was 0.25 µg/mL; in experiment [8] (NRS116, read-out: Final MIC after 20 passages) it was 16 µg/mL. Moreover, the MIC in experiment [8] (NRS116, read-out: Initial MIC) came out at 0.12 µg/mL; in experiment [3] (Staphylococcus epidermidis, Table 4, S. epidermidis NRS6, read-out: MIC), 0.25 µg/mL; in experiment [3] (Staphylococcus epidermidis, Table 4, S. epidermidis NRS7, read-out: MIC), 0.06 µg/mL; in experiment [3] (Staphylococcus epidermidis, Table 4, S. epidermidis NRS8, read-out: MIC) it was 0.12 µg/mL.

The values above are taken from patent publication US20040224981A1, “Antibacterial methods and compositions” (priority 2003, published 2004).
